Data published in ChEMBL document CHEMBL4622890, “Antiproliferative Flavanoid Dimers Isolated from Brazilian Red Propolis” (J Nat Prod, 2020).

Key:
PC-3 = assay: Cytotoxicity against human PC3 cells after 48 hrs by MTT assay; type: functional; conditions: PC-3, 48 h
MCF7 = assay: Cytotoxicity against human MCF7 cells after 48 hrs by MTT assay; type: functional; conditions: MCF7, 48 h
NCI/ADR-RES = assay: Cytotoxicity against human NCI-ADR-RES cells after 48 hrs by MTT assay; type: functional
U-251 = assay: Cytotoxicity against human U251 cells after 48 hrs by MTT assay; type: functional; conditions: U-251, 48 h
[1] = Chemopreventive index, ratio of IC50 for mouse Hepa-1c1c7 cells to drug level required to double NADPH:quinone reductase activity in mouse Hepa-1c1c7 cells
Transcription factor p65 = Transcription factor p65 (Homo sapiens, UniProt Q04206); assay: Inhibition of NF-kappaB p65 in human HeLa cells nuclear extract by chemiluminescent assay; type: cell-free
Sequence of Transcription factor p65 (Q04206 whole entry): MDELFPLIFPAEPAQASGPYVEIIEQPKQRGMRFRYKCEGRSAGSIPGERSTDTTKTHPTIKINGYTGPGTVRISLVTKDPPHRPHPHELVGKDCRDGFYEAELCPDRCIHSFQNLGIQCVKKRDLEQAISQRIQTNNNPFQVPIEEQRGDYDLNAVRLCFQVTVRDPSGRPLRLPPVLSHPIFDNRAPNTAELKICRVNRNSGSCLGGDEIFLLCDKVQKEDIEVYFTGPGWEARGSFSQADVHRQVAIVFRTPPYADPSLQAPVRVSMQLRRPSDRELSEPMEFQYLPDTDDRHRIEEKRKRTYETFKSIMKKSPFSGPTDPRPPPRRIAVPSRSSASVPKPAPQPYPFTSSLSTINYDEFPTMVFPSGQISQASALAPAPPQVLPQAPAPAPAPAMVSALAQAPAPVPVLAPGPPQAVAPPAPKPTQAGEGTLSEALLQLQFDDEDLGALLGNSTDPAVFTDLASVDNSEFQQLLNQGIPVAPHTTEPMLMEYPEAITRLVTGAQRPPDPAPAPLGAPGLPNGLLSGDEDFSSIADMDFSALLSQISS

HT-29 = assay: Cytotoxicity against human HT-29 cells after 3 days by sulforhodamine B assay; type: functional, cell-based; conditions: HT-29, 72 h
[2] = Antioxidant activity assessed as hydroxyl radical scavenging activity after 5 mins by H2DCF-DA dye based fluorescence spectrophotometric analysis; type: functional

SMILES	TGI (PC-3)	TGI (MCF7)	TGI (NCI/ADR-RES)	TGI (U-251)	Ratio [1]	IC50 (HT-29)	ED50 [2]	further results
COc1cccc2c1C(=O)c1c(O)c3c(c(O)c1C2=O)C[C@@](O)(C(=O)CO)C[C@@H]3O[C@H]1C[C@H](N)[C@H](O)[C@H](C)O1 [DOXORUBICIN]	4 µM	12.2 µM	16.1 µM	6.9 µM				
C[S+]([O-])CCCCN=C=S (stereo not drawn) [SULFORAPHANE]					21.4			
COc1ccc2c(c1)OCC(c1cc(-c3oc4cc(OC)ccc4c3Cc3ccc(O)cc3O)c(O)cc1O)C2 (stereo not drawn)	21.9 µM	34.6 µM	29.9 µM	25 µM				LC50 (PC-3): ≥ 10 µM
C=CC(C)(C)c1cc(C(=O)c2c(-c3cc(-c4cc5cc(C(C)(C)C=C)c(O)cc5oc4=O)c(O)cc3O)oc3cc(O)ccc23)c(O)cc1O					1.3 - 7.4	1.6 to 4.5 µM	0.7 to 0.9 µM	IC50 (Transcription factor p65): 6 nM
C=CC(C)(C)c1cc2c(cc1O)OC[C@H](c1cc(-c3oc4cc(O)ccc4c3C(=O)c3cc(C(C)(C)C=C)c(O)cc3O)c(O)cc1O)C2					1.3 - 7.4	1.6 to 4.5 µM	0.7 to 0.9 µM	
COc1ccc2c(c1)OCC(c1cc(Cc3c(-c4ccc(O)cc4O)oc4cc(OC)ccc34)c(O)cc1O)C2 (stereo not drawn)	19.1 µM	27 µM	19.1 µM	17.2 µM				LC50 (PC-3): ≥ 10 µM; LC50 (lethal concentration 50%) (MCF7): ≥ 10 µM; LC50 (concentration killing 50% of cells) (NCI/ADR-RES): ≥ 10 µM; CC50 (U-251; read-out: LC50 (the source's name)): ≥ 10 µM
C=CC(C)(C)c1cc(-c2oc3cc(O)ccc3c2Cc2cc(-c3cc4cc(C(C)(C)C=C)c(O)cc4oc3=O)c(O)cc2O)c(O)cc1O					1.3 - 7.4	1.6 to 4.5 µM	0.7 to 0.9 µM	
